Measured values reported in patent publication US4835160A, “Derivatives of pyridoindole, having anti-tumor properties” (Sanofi, priority 1986, dated 1989).

Experiments:
[1] = test system: leukemia tumour line L 1210; test: In vitro cytotoxic activity on leukemia tumour line L 1210; assay type: cell-based; conditions: L 1210, 48 hours contact, 37° C.; read-out: I D 50 (concentration which inhibits the proliferation of the cells by 50%)
Summary of the method: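 Exponentially growing L 1210 leukemia cells were exposed to increasing compound concentrations at 37 °C under CO2 and counted every 24 h. ID50, the concentration inhibiting proliferation by 50%, was calculated after 48 h contact.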

leukemia P388 = test: Test for leukemia P388, IP/IP, D1; assay type: in vivo, CDF1 hybrid mice; conditions: for Number of survivors: day D30; for T/C %: survival time
Method: (§1) The antitumour activity was tested in vivo on various tumours inoculated in various ways according to the following general protocol:
(§2) All the male or female mice are inoculated on day D0 with a known quantity of viable tumour cells for ascitic tumours or with a known tumour fragment for solid tumours.
(§3) They are then distributed into various groups. Each group, corresponding to the animals treated by the product under test, is made up of 10 mice. The product under test is dissolved in distilled water and it is administered n times (Dx-Dy), n, y, and x varying according to the protocol chosen, at the rate of 0.1 ml of solution per 10 g by weight of mice treated and at specific doses for each protocol.
(§4) The "negative control" group, corresponding to the animals which are not treated by the product, contains 2√N animals, N being equal to or greater than the total number of mice treated by the product in the same experiment.
(§5) Finally, the tests can also be carried out at the same time as the study of a group called "positive control", of ten animals, which is treated by a molecule, known for its antitumour activity and which can vary according to the protocol chosen, in the same conditions as the groups treated by the product under test.
(§6) The antitumour activity is evaluated, in the case of ascitic tumours, by considering the increase in the survival time of the animals treated in comparison to that of the animals in the "negative control" group, according to the formula: [formula]
(§7) Also, a product is considered as toxic at the dose studied when this T/C value is equal to or less than 85%. In addition, a product is also considered as toxic at the dose studied when the weight variation, expressed in grams and calculated by the formula: […]
(§8) The tests are carried out with CDF1 hybrid mice inoculated by intraperitoneal route with 10^6 leukemia cells from the P 388 line. The compound under test is administered for 5 successive days (D1-D5) by intraperitoneal route. The positive control for the test is 5-fluorouracile which is administered in the same conditions. The number of surviving animals is evaluated on day D30.
(b) Test for Leukemia P388, IP/IP, D1 (GERAN et al. Cancer chemother., 1972, 2, 07-57).
The test is carried out according to the preceding protocol, the compound under test being administered only on day D1.

colic adenocarcinoma 38 [2] = test: Test for colic adenocarcinoma 38, SC/D2,9 IV; assay type: in vivo, BDF1 hybrid mice; parameters: Average tumour volume at D32: unit not given beside the values; conditions: D2 and D9; for Number of survivors: day D32; for T/C % at D32: tumour volume
Method: as §1, §2, §3, §4
(§9) the antitumour activity is evaluated, in the case of solid tumours, by considering the reduction in the average tumour volume of the treated animals in comparison with the animals of the "negative control" group, according to the formula: [formula]
(§10) A value for T/C of less than 42% indicates an activity for the product at the studied dose.
(§11) The tests are carried out with BDF1 hybrid mice inoculated by subcutaneous route with a standardized tumour fragment of 3 mm^3. The compound under test is administered by intravenous route only on day D1.
(i) Test for colic adenocarcinoma 38, SC/D2,9 IV (GERAN et al., Cancer Chemother., 1972, 2, 07-57).
This test is carried out according to the protocol described for test (h), the compound under test being administered by intravenous route on day D2 then on day D9.
The number of surviving animals is evaluated on day D32.

leukemia P 388 [3] = test: Test for leukemia P 388 IP/D1 IV; assay type: in vivo, CDF1 hybrid mice; conditions: for Number of survivors: day D30; for T/C %: survival time
Method: as §1, §2, §3, §4, §5, §6, §7, §8
(f) Test for leukemia P 388 IP/D1 IV (GERAN et al., Cancer Chemother., 1972, 2, 07-57).
The test is carried out according to the same protocol as that described for test (a), the compound under test being administered by intravenous route only on day D1.

colic adenocarcinoma 38 [4] = test: Test for colic adenocarcinoma 38, SC/D1 IV; assay type: in vivo, BDF1 hybrid mice; conditions: 100 mg/kg IV
Method: as §1, §2, §3, §4, §9, §10
(h) Test for colic adenocarcinoma 38, SC/D1 IV. (GERAN et al., Cancer Chemother., 1972, 2, 07-57).
as §11
The number of surviving animals is evaluated on day D38.

leukemia P 388 [5] = test: Test of leukemia P 388; IP/IP, D1-5; assay type: in vivo, CDF1 hybrid mice; conditions: D1-D5; for Number of survivors: day D30; for T/C %: survival time
Summary of the method: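 CDF1 hybrid mice received 10^6 P 388 cells intraperitoneally, then compound in distilled water by intraperitoneal route daily D1-D5, 10 mice per group, 5-fluorouracil as positive control. Activity judged as T/C survival time versus untreated controls, survivors counted at D30; T/C ≤85% or day 5 minus day 1 weight change ≤ −4 g counted as toxic.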

## CCN(CC)CCCNc1ncc(C)c2c1c1cc(O)ccc1n2C [Derivative No. 12, 1-(3-diethylaminopropylamino)-4,5-dimethyl-8-hydroxy-5H-pyrido[4,3-b]indole]
[1]
  IC50: 0.035 µM
Leukemia P388; 5 mg/kg IP
  Median day of survival: 15.87 days
  Variation by weight (g): +0.1 g
  Number of survivors: 0/10
  T/C %: 139%
Leukemia P388; 10 mg/kg IP
  Median day of survival: 17.75 days
  Variation by weight: -0.6 g
  Number of survivors: 0/10
  T/C %: 156%
Leukemia P388; 20 mg/kg IP
  Median day of survival: 20.75 days
  Variation by weight: -1.2 g
  Number of survivors: 0/10
  T/C %: 182%
Leukemia P388; 40 mg/kg IP
  Median day of survival: 23.0 days
  Variation by weight: -6.2 g
  Number of survivors: 1/10
  T/C %: 202%
Colic adenocarcinoma 38 [2]; 50 mg/kg IV
  Average tumour volume at D32: 1.38
  Number of survivors: 10/10
  T/C % at D32: 18%
Colic adenocarcinoma 38 [2]; 75 mg/kg IV
  Average tumour volume at D32: 0.97
  Number of survivors: 10/10
  T/C % at D32: 13%
Leukemia P 388 [3]; 50 mg/kg IV
  Median day of survival: 19.0 days
  Variation by weight: -0.7 g
  Number of survivors: 0/10
  T/C %: 174%
Leukemia P 388 [3]; 100 mg/kg IV
  Median day of survival: 24.3 days
  Variation by weight: -1.6 g
  Number of survivors: 1/10
  T/C %: 223%
Colic adenocarcinoma 38 [4]
  Average tumour volume at D38: 3.24
Colic adenocarcinoma 38 [4]; day D38
  Number of survivors: 10/10
Colic adenocarcinoma 38 [4]; tumour volume
  T/C % at D38: 36%
Leukemia P 388 [5]; 1.25 mg/kg IP
  Median day of survival: 16.7 days
  Variation by weight: -0.5 g
  Number of survivors: 1/10
  T/C %: 152%
Leukemia P 388 [5]; 2.5 mg/kg IP
  Median day of survival: 18.0 days
  Variation by weight: -1.2 g
  Number of survivors: 0/10
  T/C %: 164%
Leukemia P 388 [5]; 5 mg/kg IP
  Median day of survival: 19.00 days
  Variation by weight: -1.9 g
  Number of survivors: 2/10
  T/C %: 173%
Leukemia P 388 [5]; 10 mg/kg IP
  Median day of survival: 19.3 days
  Number of survivors: 0/10
  T/C %: 176%
Leukemia P 388 [5]; 20 mg/kg IP
  Median day of survival: 9.7 days
  Variation by weight: -5.9 g
  Number of survivors: 0/10
  T/C %: 88%
